Laboratory results taken from PubChem BioAssay AID330 (DTP/NCI, 2004).
Values joined by “and” are separate entries in the source; they are usually repeats but may differ in a detail not shown here. Equal values may be shown once. Inconclusive results and toxic doses are left out.

Tested on: P388 leukemia ip, CD2F1 mice, survival T/C
Test: NCI In Vivo Anticancer Drug Screen. Data for tumor model P388 Leukemia (intraperitoneal) in CD2F1 (CDF1) mice
Conditions: endpoint: median survival time, higher = longer survival
In short: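 Mice carrying the transplanted tumor received test compound or vehicle. Survival was recorded in each group, and the value is the treated-group measurement divided by that of the vehicle-treated control group.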

[1] = dose: 50.0 mg/kg/injection, schedule: Q01DX009 (ip), vehicle: saline with Tween-80
[2] = dose: 50.0 mg/kg/injection, schedule: Q01DX005 (ip), vehicle: Klucel (hydroxypropylcellulose) (HPC)
[3] = dose: 100.0 mg/kg/injection, schedule: Q01DX005 (ip), vehicle: Klucel (hydroxypropylcellulose) (HPC)
[4] = dose: 200.0 mg/kg/injection, schedule: Q01DX005 (ip), vehicle: Klucel (hydroxypropylcellulose) (HPC)
[5] = dose: 50.0 mg/kg/injection, schedule: Q01DX009 (ip), vehicle: saline
[6] = dose: 100.0 mg/kg/injection, schedule: Q01DX009 (ip), vehicle: saline
[7] = dose: 200.0 mg/kg/injection, schedule: Q01DX009 (ip), vehicle: saline
[8] = dose: 60.0 mg/kg/injection, schedule: Q01DX005 (ip), vehicle: saline with Tween-80
[9] = dose: 120.0 mg/kg/injection, schedule: Q01DX005 (ip), vehicle: saline with Tween-80
[10] = dose: 240.0 mg/kg/injection, schedule: Q01DX005 (ip), vehicle: saline with Tween-80
[11] = dose: 25.0 mg/kg/injection, schedule: Q01DX009 (ip), vehicle: Klucel (hydroxypropylcellulose) (HPC)
[12] = dose: 50.0 mg/kg/injection, schedule: Q01DX009 (ip), vehicle: Klucel (hydroxypropylcellulose) (HPC)
[13] = dose: 100.0 mg/kg/injection, schedule: Q01DX009 (ip), vehicle: Klucel (hydroxypropylcellulose) (HPC)

## NC(C(=O)O)C(CC(=O)O)c1ccccc1 (configuration not stated)
[1]
  T/C: 88 % of control
dose: 50.0 mg/kg/injection, schedule: Q01DX009 (ip), vehicle: suspension in saline
  T/C: 96 % of control
dose: 100.0 mg/kg/injection, schedule: Q01DX009 (ip), vehicle: saline with Tween-80
  T/C: 94 % of control
dose: 100.0 mg/kg/injection, schedule: Q01DX009 (ip), vehicle: suspension in saline
  T/C: 89 % of control
dose: 100.0 mg/kg/injection, schedule: Q04DX003 (ip), vehicle: saline with Tween-80
  T/C: 100 % of control
dose: 200.0 mg/kg/injection, schedule: Q01DX009 (ip), vehicle: saline with Tween-80
  T/C: 95 % of control
dose: 200.0 mg/kg/injection, schedule: Q01DX009 (ip), vehicle: suspension in saline
  T/C: 88 % of control
dose: 200.0 mg/kg/injection, schedule: Q04DX003 (ip), vehicle: saline with Tween-80
  T/C: 108 % of control
dose: 400.0 mg/kg/injection, schedule: Q04DX003 (ip), vehicle: saline with Tween-80
  T/C: 97 % of control

## COc1c2c(c(N3CCCC3)c3c1C(=O)c1ccccc1C3=O)C(=O)CCC2
dose: 100.0 mg/kg/injection, schedule: Q01DX001 (ip), vehicle: saline with Tween-80
  T/C: 100 % of control
dose: 200.0 mg/kg/injection, schedule: Q01DX001 (ip), vehicle: saline with Tween-80
  T/C: 105 % of control
dose: 400.0 mg/kg/injection, schedule: Q01DX001 (ip), vehicle: saline with Tween-80
  T/C: 94 % of control

## Cc1ccccc1C1OC(N)=C(O)C1=O (configuration not stated)
dose: 60.0 mg/kg/injection, schedule: Q01DX005 (ip), vehicle: Klucel (hydroxypropylcellulose) (HPC)
  T/C: 93 % of control
dose: 120.0 mg/kg/injection, schedule: Q01DX005 (ip), vehicle: Klucel (hydroxypropylcellulose) (HPC)
  T/C: 93 % of control
dose: 240.0 mg/kg/injection, schedule: Q01DX005 (ip), vehicle: Klucel (hydroxypropylcellulose) (HPC)
  T/C: 90 % of control

## N#CCC(=O)CCCCCCCO
dose: 100.0 mg/kg/injection, schedule: Q01DX001 (ip), vehicle: saline
  T/C: 93 % of control
dose: 400.0 mg/kg/injection, schedule: Q01DX001 (ip), vehicle: saline
  T/C: 92 % of control

## Cc1ccc2cccc(C(=O)N(C)C)c2[n+]1C
dose: 31.2 micrograms/kg/injection, schedule: Q04DX002 (ip), vehicle: saline
  T/C: 100 % of control
dose: 62.5 micrograms/kg/injection, schedule: Q04DX002 (ip), vehicle: saline
  T/C: 103 % of control

## N[C@@H](C(=O)O)[C@@H]1C=CCCC1
dose: 100.0 mg/kg/injection, schedule: Q04DX002 (ip), vehicle: saline
  T/C: 101 % of control
dose: 200.0 mg/kg/injection, schedule: Q04DX002 (ip), vehicle: saline
  T/C: 94 % of control

## O=C(O)CCCC(O)(O)C(=O)O
[2]
  T/C: 108 % of control
[3]
  T/C: 94 % of control
[4]
  T/C: 96 % of control

## CCCCCCCCCCCCSC1=C(Cl)C(=O)C(OC)=C(OC)C1=O
dose: 6.0 mg/kg/injection, schedule: Q01DX Z (ip), vehicle: saline
  T/C: 103 % of control
dose: 6.25 mg/kg/injection, schedule: Q01DX009 (ip), vehicle: saline with Tween-80
  T/C: 105 % of control
dose: 12.0 mg/kg/injection, schedule: Q01DX Z (ip), vehicle: saline
  T/C: 100 % of control
dose: 12.5 mg/kg/injection, schedule: Q01DX009 (ip), vehicle: saline with Tween-80
  T/C: 108 % of control
dose: 25.0 mg/kg/injection, schedule: Q01DX009 (ip), vehicle: saline with Tween-80
  T/C: 121 % of control
dose: 25.0 mg/kg/injection, schedule: Q01DX Z (ip), vehicle: saline
  T/C: 100 % of control
[1]
  T/C: 119 % of control
dose: 50.0 mg/kg/injection, schedule: Q01DX Z (ip), vehicle: saline
  T/C: 92 % of control

## COC(C)(C)c1cc(C(C)(C)C)cc2c1SOC2(C)C
dose: 100.0 mg/kg/injection, schedule: Q04DX002 (ip), vehicle: Klucel (hydroxypropylcellulose) (HPC)
  T/C: 94 % of control
dose: 200.0 mg/kg/injection, schedule: Q04DX002 (ip), vehicle: Klucel (hydroxypropylcellulose) (HPC)
  T/C: 100 % of control
dose: 400.0 mg/kg/injection, schedule: Q04DX002 (ip), vehicle: Klucel (hydroxypropylcellulose) (HPC)
  T/C: 114 % of control

## CNC(=O)C1CCCCC1Br (configuration not stated)
[2]
  T/C: 103 % of control
[3]
  T/C: 103 % of control
[4]
  T/C: 105 % of control

## COc1cc2c(cc1OC)C1CC3(CCN1CC2)CC(=O)OC3=O (configuration not stated)
dose: 50.0 mg/kg/injection, schedule: Q01DX005 (ip), vehicle: DMSO
  T/C: 108 % of control
dose: 100.0 mg/kg/injection, schedule: Q01DX005 (ip), vehicle: DMSO
  T/C: 120 % of control
dose: 200.0 mg/kg/injection, schedule: Q01DX005 (ip), vehicle: DMSO
  T/C: 119 % of control

## NCCC1C2CC3CC(C2)CC1C3 (configuration not stated)
[5]
  T/C: 88 % of control
[6]
  T/C: 88 % of control

## NC1=NC(=O)N2CC12 (configuration not stated)
[5]
  T/C: 122 % of control
[6]
  T/C: 153 % of control and 158 % of control
[7]
  T/C: 100 % of control

## N#CC1=C(Nc2ccccc2)CCC1
dose: 12.5 mg/kg/injection, schedule: Q01DX005 (ip), vehicle: Klucel (hydroxypropylcellulose) (HPC)
  T/C: 95 % of control
dose: 25.0 mg/kg/injection, schedule: Q01DX005 (ip), vehicle: Klucel (hydroxypropylcellulose) (HPC)
  T/C: 101 % of control
[2]
  T/C: 99 % of control and 101 % of control
[3]
  T/C: 110 % of control

## O=C(NC(=O)c1ccccc1Cl)Nc1ccc(C(O)(C(F)(F)F)C(F)(F)F)cc1
dose: 50.0 mg/kg/injection, schedule: Q01DX005 (ip), vehicle: saline with Tween-80
  T/C: 104 % of control
dose: 100.0 mg/kg/injection, schedule: Q01DX005 (ip), vehicle: saline with Tween-80
  T/C: 102 % of control
dose: 200.0 mg/kg/injection, schedule: Q01DX005 (ip), vehicle: saline with Tween-80
  T/C: 100 % of control

## COc1cccc(C(Nc2nncs2)Nc2nncs2)c1[N+](=O)[O-]
[8]
  T/C: 98 % of control
[9]
  T/C: 98 % of control
[10]
  T/C: 101 % of control

## N/C(=N\C(=O)OCc1ccccc1)NC(=O)OCc1ccccc1
[11]
  T/C: 99 % of control and 109 % of control
[12]
  T/C: 104 % of control and 105 % of control
[13]
  T/C: 103 % of control and 104 % of control
dose: 200.0 mg/kg/injection, schedule: Q01DX009 (ip), vehicle: Klucel (hydroxypropylcellulose) (HPC)
  T/C: 99 % of control and 100 % of control
dose: 400.0 mg/kg/injection, schedule: Q01DX009 (ip), vehicle: Klucel (hydroxypropylcellulose) (HPC)
  T/C: 99 % of control and 93 % of control

## CC1OC(=O)c2cc3ccccc3nc21 (configuration not stated)
[8]
  T/C: 93 % of control
[9]
  T/C: 100 % of control
[10]
  T/C: 93 % of control

## COC(=O)C1c2c(C)cc3n2C(C=CC3)C1C(=O)OC (configuration not stated)
dose: 100.0 mg/kg/injection, schedule: Q04DX003 (ip), vehicle: Klucel (hydroxypropylcellulose) (HPC)
  T/C: 94 % of control
dose: 200.0 mg/kg/injection, schedule: Q04DX003 (ip), vehicle: Klucel (hydroxypropylcellulose) (HPC)
  T/C: 93 % of control
dose: 400.0 mg/kg/injection, schedule: Q04DX003 (ip), vehicle: Klucel (hydroxypropylcellulose) (HPC)
  T/C: 101 % of control

## O=C(O)Cc1ccc(N2N=C(c3ccccc3)CC2=O)cc1
[8]
  T/C: 98 % of control
[9]
  T/C: 92 % of control

## C=C1C(=O)O[C@@H]2C[C@@H](C)[C@@H]3CC[C@H](O)[C@@]3(COC(C)=O)C[C@@H]12
dose: 8.13 mg/kg/injection, schedule: Q01DX005 (ip), vehicle: Klucel (hydroxypropylcellulose) (HPC)
  T/C: 97 % of control
dose: 16.25 mg/kg/injection, schedule: Q01DX005 (ip), vehicle: Klucel (hydroxypropylcellulose) (HPC)
  T/C: 99 % of control
dose: 32.5 mg/kg/injection, schedule: Q01DX005 (ip), vehicle: Klucel (hydroxypropylcellulose) (HPC)
  T/C: 100 % of control and 98 % of control
dose: 65.0 mg/kg/injection, schedule: Q01DX005 (ip), vehicle: Klucel (hydroxypropylcellulose) (HPC)
  T/C: 104 % of control and 109 % of control
dose: 130.0 mg/kg/injection, schedule: Q01DX005 (ip), vehicle: Klucel (hydroxypropylcellulose) (HPC)
  T/C: 113 % of control
dose: 260.0 mg/kg/injection, schedule: Q01DX005 (ip), vehicle: Klucel (hydroxypropylcellulose) (HPC)
  T/C: 122 % of control

## CC1(Cl)CC2OC3(Br)C=CC(C)(O)C2(CC1Br)C3(C)C (configuration not stated)
dose: 12.5 mg/kg/injection, schedule: Q01DX009 (ip), vehicle: Klucel (hydroxypropylcellulose) (HPC)
  T/C: 101 % of control
[11]
  T/C: 100 % of control
[12]
  T/C: 100 % of control
[13]
  T/C: 101 % of control

## CCn1c(=O)c2c(N(C)C)snc2n(CC)c1=O
[5]
  T/C: 96 % of control
[6]
  T/C: 107 % of control
[7]
  T/C: 110 % of control
